Reference: PMC5218480 (PLoS ONE, 2017)

Test system: MV-4-11 cells
Assay: Gene expression microarray analysis (Affymetrix PrimeView) and GSEA
Type: cell-based, human
Set-up: RFU PODN (11730768_x_at) / Fold change /veh PODN (11730768_x_at) / RFU LINC00158 (11744669_a_at) / Fold change /veh LINC00158 (11744669_a_at) / RFU DUSP10 (11751237_a_at) / Fold change /veh DUSP10 (11751237_a_at) / RFU ID3 (11757404_x_at) / Fold change /veh ID3 (11757404_x_at) / RFU PLEKHG5 (11737974_s_at) / Fold change /veh PLEKHG5 (11737974_s_at) / RFU LRRC4B (11730491_at) / Fold change /veh LRRC4B (11730491_at) / RFU GIMAP4 (11747438_a_at) / Fold change /veh GIMAP4 (11747438_a_at) / RFU KRT8 (11758183_x_at) / Fold change /veh KRT8 (11758183_x_at) / RFU CNN1 (11734310_a_at) / Fold change /veh CNN1 (11734310_a_at) / RFU VPS37D (11726825_at) / Fold change /veh VPS37D (11726825_at) / RFU C10orf10 (11716522_x_at) / Fold change /veh C10orf10 (11716522_x_at) / RFU KIR2DL2 /// KIR2DL4 /// KIR2DL5A /// KIR2DL5B /// KIR2DS1 /// KIR2DS2 /// KIR2DS3 /// KIR2DS4 /// KIR3DL3 /// KIR3DL3 /// KIR3DS1 (11738374_at) / Fold change /veh KIR2DL2 /// KIR2DL4 /// KIR2DL5A /// KIR2DL5B /// KIR2DS1 /// KIR2DS2 /// KIR2DS3 /// KIR2DS4 /// KIR3DL3 /// KIR3DL3 /// KIR3DS1 (11738374_at) / RFU C1QL1 (11718748_at) / Fold change /veh C1QL1 (11718748_at) / RFU TMPRSS4 (11747572_a_at) / Fold change /veh TMPRSS4 (11747572_a_at) / RFU HAMP (11756126_x_at) / Fold change /veh HAMP (11756126_x_at) / RFU RNFT2 (11725882_a_at) / Fold change /veh RNFT2 (11725882_a_at) / RFU NR4A2 (11747474_a_at) / Fold change /veh NR4A2 (11747474_a_at) / RFU ABCC12 (11746883_a_at) / Fold change /veh ABCC12 (11746883_a_at) / RFU TMEM136 (11760407_x_at) / Fold change /veh TMEM136 (11760407_x_at) / RFU CLDN22 /// WWC2 (11732394_at) / Fold change /veh CLDN22 /// WWC2 (11732394_at) / RFU HLA-DPB1 (11760878_x_at) / Fold change /veh HLA-DPB1 (11760878_x_at) / RFU SPINT1 (11716480_a_at) / Fold change /veh SPINT1 (11716480_a_at) / RFU GAP43 (11754022_s_at) / Fold change /veh GAP43 (11754022_s_at) / RFU A4GNT (11735810_at) / Fold change /veh A4GNT (11735810_at) / RFU PRB3 (11715151_x_at) / Fold change /veh PRB3 (11715151_x_at) / RFU TUBB4B (11761932_at) / Fold change /veh TUBB4B (11761932_at) / RFU CAPN14 (11732068_a_at) / Fold change /veh CAPN14 (11732068_a_at) / RFU TMCC2 (11721928_a_at) / Fold change /veh TMCC2 (11721928_a_at) / RFU IRGQ (11745062_a_at) / Fold change /veh IRGQ (11745062_a_at) / RFU FAM174B (11720279_a_at) / Fold change /veh FAM174B (11720279_a_at) / RFU TMPRSS4 (11748680_a_at) / Fold change /veh TMPRSS4 (11748680_a_at) / RFU FAM212B (11763350_a_at) / Fold change /veh FAM212B (11763350_a_at) / RFU PLEKHG5 (11743358_a_at) / Fold change /veh PLEKHG5 (11743358_a_at) / RFU ZSCAN30 (11745921_a_at) / Fold change /veh ZSCAN30 (11745921_a_at) / RFU CMKLR1 (11741424_a_at) / Fold change /veh CMKLR1 (11741424_a_at) / RFU LOC101060620 /// MAPK8IP1 (11723275_at) / Fold change /veh LOC101060620 /// MAPK8IP1 (11723275_at) / RFU SPTSSB (11747773_x_at) / Fold change /veh SPTSSB (11747773_x_at) / RFU PRSS12 (11739890_at) / Fold change /veh PRSS12 (11739890_at) / RFU BIN1 (11741810_x_at) / Fold change /veh BIN1 (11741810_x_at) / RFU WNT11 (11732464_a_at) / Fold change /veh WNT11 (11732464_a_at) / RFU C10orf10 (11716521_a_at) / Fold change /veh C10orf10 (11716521_a_at) / RFU C5orf56 (11738089_at) / Fold change /veh C5orf56 (11738089_at) / RFU CYB561 (11721691_x_at) / Fold change /veh CYB561 (11721691_x_at) / RFU ANKRD19P (11752326_a_at) / Fold change /veh ANKRD19P (11752326_a_at) / RFU OR2T12 /// OR2T33 /// OR2T8 (11738714_s_at) / Fold change /veh OR2T12 /// OR2T33 /// OR2T8 (11738714_s_at) / RFU VCAN (11748164_a_at) / Fold change /veh VCAN (11748164_a_at) / RFU JSRP1 (11732532_at) / Fold change /veh JSRP1 (11732532_at) / RFU KRTAP10-11 (11738290_x_at) / Fold change /veh KRTAP10-11 (11738290_x_at) / RFU MYO3A (11730013_a_at) / Fold change /veh MYO3A (11730013_a_at) / RFU EBF3 (11725865_a_at) / Fold change /veh EBF3 (11725865_a_at) / RFU CAMK2N1 (11719241_x_at) / Fold change /veh CAMK2N1 (11719241_x_at) / RFU C5orf56 (11738088_a_at) / Fold change /veh C5orf56 (11738088_a_at) / RFU OLFML3 (11715873_a_at) / Fold change /veh OLFML3 (11715873_a_at) / RFU LOC100653217 /// NTM (11731650_a_at) / Fold change /veh LOC100653217 /// NTM (11731650_a_at) / RFU MAPK11 (11762145_a_at) / Fold change /veh MAPK11 (11762145_a_at) / RFU FIZ1 (11724087_x_at) / Fold change /veh FIZ1 (11724087_x_at) / RFU OASL (11726364_x_at) / Fold change /veh OASL (11726364_x_at) / RFU SOX15 (11748057_x_at) / Fold change /veh SOX15 (11748057_x_at) / RFU CD79A (11719716_a_at) / Fold change /veh CD79A (11719716_a_at) / RFU HIST1H1D (11736915_at) / Fold change /veh HIST1H1D (11736915_at) / RFU CASKIN2 (11723855_a_at) / Fold change /veh CASKIN2 (11723855_a_at) / RFU LOC730098 (11760151_x_at) / Fold change /veh LOC730098 (11760151_x_at) / RFU OR4N2 (11742367_at) / Fold change /veh OR4N2 (11742367_at) / RFU PRRT2 (11749266_a_at) / Fold change /veh PRRT2 (11749266_a_at) / RFU SNX32 (11753110_a_at) / Fold change /veh SNX32 (11753110_a_at) / RFU CDHR5 (11726645_a_at) / Fold change /veh CDHR5 (11726645_a_at) / RFU RCAN1 (11760418_a_at) / Fold change /veh RCAN1 (11760418_a_at) / RFU FAM167A (11723789_a_at) / Fold change /veh FAM167A (11723789_a_at) / RFU FAM26E (11764081_at) / Fold change /veh FAM26E (11764081_at) / RFU ISYNA1 (11749810_s_at) / Fold change /veh ISYNA1 (11749810_s_at) / RFU ACY1 (11761880_at) / Fold change /veh ACY1 (11761880_at) / RFU 11764098_at / Fold change /veh 11764098_at / RFU SAMD14 (11745864_x_at) / Fold change /veh SAMD14 (11745864_x_at) / RFU NPB (11741838_a_at) / Fold change /veh NPB (11741838_a_at) / RFU TMPRSS6 (11731388_a_at) / Fold change /veh TMPRSS6 (11731388_a_at) / RFU KRTAP10-2 (11738614_at) / Fold change /veh KRTAP10-2 (11738614_at) / RFU ARHGAP8 /// PRR5-ARHGAP8 (11727945_x_at) / Fold change /veh ARHGAP8 /// PRR5-ARHGAP8 (11727945_x_at) / RFU KRTAP5-7 /// NADSYN1 (11734609_at) / Fold change /veh KRTAP5-7 /// NADSYN1 (11734609_at) / RFU RASL12 (11751679_a_at) / Fold change /veh RASL12 (11751679_a_at) / RFU CDKN2B (11736163_a_at) / Fold change /veh CDKN2B (11736163_a_at) / RFU PRF1 (11729649_at) / Fold change /veh PRF1 (11729649_at) / RFU, ZNF638 /// ZNF638-IT1 / Fold change vs veh, ZNF638 /// ZNF638-IT1 / RFU, PANK3 / Fold change vs veh, PANK3 / RFU, SH3YL1 / Fold change vs veh, SH3YL1 / RFU, ZEB2 / Fold change vs veh, ZEB2 / RFU, NRIP1 / Fold change vs veh, NRIP1 / RFU, PTTG1IP / Fold change vs veh, PTTG1IP / RFU, CAPN2 / Fold change vs veh, CAPN2 / RFU, MED14 / Fold change vs veh, MED14 / RFU, SNORA58 / Fold change vs veh, SNORA58 / RFU, C1orf63 / Fold change vs veh, C1orf63 / RFU, LRRFIP1 / Fold change vs veh, LRRFIP1 / RFU, NDUFAF7 / Fold change vs veh, NDUFAF7 / RFU, SLC12A2 / Fold change vs veh, SLC12A2 / RFU, IBTK / Fold change vs veh, IBTK / RFU, ESF1 / Fold change vs veh, ESF1 / Fold change vs veh, TMEM50B / RFU, TAOK1 / Fold change vs veh, TAOK1 / RFU, ACBD3 / Fold change vs veh, ACBD3 / RFU, TMA16 / Fold change vs veh, TMA16 / RFU, RWDD3 / Fold change vs veh, RWDD3 / RFU, BCAT1 / Fold change vs veh, BCAT1 / RFU, EDEM3 / Fold change vs veh, EDEM3 / RFU, TMEM33 / Fold change vs veh, TMEM33 / RFU, WDR75 / Fold change vs veh, WDR75 / RFU, AHCTF1 / Fold change vs veh, AHCTF1 / RFU, TFRC / Fold change vs veh, TFRC / RFU, ZDHHC17 / Fold change vs veh, ZDHHC17 / RFU, NOM1 / Fold change vs veh, NOM1 / RFU, ARL8B / Fold change vs veh, ARL8B / RFU, ZBTB11 / Fold change vs veh, ZBTB11 / RFU, TAMM41 / Fold change vs veh, TAMM41 / RFU, KIAA1704 /// LOC100996395 / Fold change vs veh, KIAA1704 /// LOC100996395 / RFU, ING1 / Fold change vs veh, ING1 / RFU, TRMT61B / Fold change vs veh, TRMT61B / RFU, FUBP3 / Fold change vs veh, FUBP3 / RFU, TP53 / Fold change vs veh, TP53 / RFU, TNKS2 / Fold change vs veh, TNKS2 / RFU, ZFP14 / Fold change vs veh, ZFP14 / RFU, ACTR2 / Fold change vs veh, ACTR2 / RFU, PPP3R1 / Fold change vs veh, PPP3R1 / RFU, PIK3R1 / Fold change vs veh, PIK3R1 / RFU, HNRNPA1 / Fold change vs veh, HNRNPA1 / RFU, RNF170 / Fold change vs veh, RNF170 / RFU, ZNF28 / Fold change vs veh, ZNF28 / RFU, RNGTT / Fold change vs veh, RNGTT / RFU, OGT / Fold change vs veh, OGT / RFU, BRD1 / Fold change vs veh, BRD1 / RFU, MARS / Fold change vs veh, MARS / RFU, ZNF655 / Fold change vs veh, ZNF655 / RFU, FAHD1 / Fold change vs veh, FAHD1 / RFU, BDP1 / Fold change vs veh, BDP1 / RFU, LRRCC1 / Fold change vs veh, LRRCC1 / RFU, ARID1A / Fold change vs veh, ARID1A / RFU, ZNF146 / Fold change vs veh, ZNF146 / RFU, ZNF330 / Fold change vs veh, ZNF330 / RFU, GPN3 / Fold change vs veh, GPN3 / RFU, C9orf123 / Fold change vs veh, C9orf123 / RFU, N4BP2L2 / Fold change vs veh, N4BP2L2 / RFU, ARFIP1 / Fold change vs veh, ARFIP1 / RFU, FAM179B / Fold change vs veh, FAM179B / RFU, BCL10 / Fold change vs veh, BCL10 / RFU, UHRF1BP1L / Fold change vs veh, UHRF1BP1L / RFU, BET1 / Fold change vs veh, BET1 / RFU, CNOT2 / Fold change vs veh, CNOT2 / RFU, ZNF268 / Fold change vs veh, ZNF268 / Fold change vs veh, ZNF507 / RFU, DGCR2 / Fold change vs veh, DGCR2 / RFU, WDSUB1 / Fold change vs veh, WDSUB1 / Fold change vs veh, HSP90B1 /// MIR3652 / RFU, ADSS / Fold change vs veh, ADSS / RFU, GK / Fold change vs veh, GK / RFU, ZNF148 / Fold change vs veh, ZNF148 / RFU, TAF9 / Fold change vs veh, TAF9 / RFU, SLC1A5 / Fold change vs veh, SLC1A5 / RFU, SLMO2 / Fold change vs veh, SLMO2 / RFU, ABCC4 / Fold change vs veh, ABCC4 / RFU, LOC101060439 /// RAP1B / Fold change vs veh, LOC101060439 /// RAP1B / RFU, RFX7 / Fold change vs veh, RFX7 / RFU, GTPBP10 / Fold change vs veh, GTPBP10 / RFU, CNEP1R1 / Fold change vs veh, CNEP1R1 / RFU, BIVM-ERCC5 /// ERCC5 / Fold change vs veh, BIVM-ERCC5 /// ERCC5 / RFU, ILF3 / Fold change vs veh, ILF3 / RFU 11762660_at / Fold change /veh 11762660_at / RFU VCAN (11757783_s_at) / Fold change /veh VCAN (11757783_s_at) / RFU DDX43 (11728927_at) / Fold change /veh DDX43 (11728927_at) / RFU KRT8 (11758188_x_at) / Fold change /veh KRT8 (11758188_x_at) / RFU NKD1 (11759106_at) / Fold change /veh NKD1 (11759106_at) / RFU SRD5A1 (11742802_a_at) / Fold change /veh SRD5A1 (11742802_a_at) / RFU TPSAB1 /// TPSB2 (11721975_s_at) / Fold change /veh TPSAB1 /// TPSB2 (11721975_s_at) / RFU GSTM3 (11746129_a_at) / Fold change /veh GSTM3 (11746129_a_at) / RFU IL23R (11737362_x_at) / Fold change /veh IL23R (11737362_x_at) / RFU TMEM51 (11727254_a_at) / Fold change /veh TMEM51 (11727254_a_at) / RFU PIWIL2 (11732686_x_at) / Fold change /veh PIWIL2 (11732686_x_at) / RFU ORM1 (11744905_x_at) / Fold change /veh ORM1 (11744905_x_at) / RFU CCDC152 (11743942_at) / Fold change /veh CCDC152 (11743942_at) / RFU ECM1 (11717891_a_at) / Fold change /veh ECM1 (11717891_a_at) / RFU IL23R (11748794_a_at) / Fold change /veh IL23R (11748794_a_at) / RFU TNFAIP8L3 (11732012_x_at) / Fold change /veh TNFAIP8L3 (11732012_x_at) / RFU MBOAT4 (11741988_at) / Fold change /veh MBOAT4 (11741988_at) / RFU 11764193_at / Fold change /veh 11764193_at / RFU TMEM53 (11763286_at) / Fold change /veh TMEM53 (11763286_at) / RFU MAGEB2 (11727129_at) / Fold change /veh MAGEB2 (11727129_at) / RFU TMEM200A (11744735_a_at) / Fold change /veh TMEM200A (11744735_a_at) / RFU CCDC152 (11751479_a_at) / Fold change /veh CCDC152 (11751479_a_at) / RFU FAM211A (11726209_a_at) / Fold change /veh FAM211A (11726209_a_at) / RFU RGS16 (11746705_a_at) / Fold change /veh RGS16 (11746705_a_at) / RFU VCAN (11755009_s_at) / Fold change /veh VCAN (11755009_s_at) / RFU RHOB (11743442_s_at) / Fold change /veh RHOB (11743442_s_at) / RFU RGS16 (11720943_a_at) / Fold change /veh RGS16 (11720943_a_at) / RFU RGS16 (11720944_at) / Fold change /veh RGS16 (11720944_at) / RFU, VPS4B / Fold change vs veh, VPS4B / RFU, CREB1 / Fold change vs veh, CREB1 / RFU, DNAJC13 / Fold change vs veh, DNAJC13 / RFU, GNAQ / Fold change vs veh, GNAQ / RFU, CDK5R1 / Fold change vs veh, CDK5R1 / RFU, ZRANB3 / Fold change vs veh, ZRANB3 / RFU, CUL4A / Fold change vs veh, CUL4A / RFU, CCNY / Fold change vs veh, CCNY / RFU, UFL1 / Fold change vs veh, UFL1 / RFU, COG3 / Fold change vs veh, COG3 / RFU, DIAPH2 / Fold change vs veh, DIAPH2 / RFU, SKA2 / Fold change vs veh, SKA2 / RFU, AFF3 / Fold change vs veh, AFF3 / RFU, LMF1 / Fold change vs veh, LMF1 / RFU, IPO11 / Fold change vs veh, IPO11 / RFU, DFFB / Fold change vs veh, DFFB / RFU, FOXP1 / Fold change vs veh, FOXP1 / RFU, CARD8 / Fold change vs veh, CARD8 / RFU, STRN3 / Fold change vs veh, STRN3 / RFU, ADK / Fold change vs veh, ADK / RFU, RASSF2 / Fold change vs veh, RASSF2 / RFU, WIPF1 / Fold change vs veh, WIPF1 / RFU, LARP1B / Fold change vs veh, LARP1B / RFU, RASA1 / Fold change vs veh, RASA1 / RFU, RB1 / Fold change vs veh, RB1 / RFU, PPFIA1 / Fold change vs veh, PPFIA1 / RFU, MAT2A / Fold change vs veh, MAT2A / RFU, CCT5 / Fold change vs veh, CCT5 / RFU, WDR92 / Fold change vs veh, WDR92 / RFU, CUX1 / Fold change vs veh, CUX1 / RFU, TTC7A / Fold change vs veh, TTC7A / RFU, TMEM135 / Fold change vs veh, TMEM135 / RFU, DEPTOR / Fold change vs veh, DEPTOR / RFU, CPM / Fold change vs veh, CPM / RFU, DNAJB6 / Fold change vs veh, DNAJB6 / RFU, CACNA2D3 / Fold change vs veh, CACNA2D3 / RFU, DTX4 / Fold change vs veh, DTX4 / RFU, TFCP2 / Fold change vs veh, TFCP2 / RFU, GMCL1 /// GMCL1P1 / Fold change vs veh, GMCL1 /// GMCL1P1 / RFU, AEBP2 / Fold change vs veh, AEBP2 / RFU, SNHG1 /// SNORD22 /// SNORD25 /// SNORD26 /// SNORD27 /// SNORD28 /// SNORD29 /// SNORD31 / Fold change vs veh, SNHG1 /// SNORD22 /// SNORD25 /// SNORD26 /// SNORD27 /// SNORD28 /// SNORD29 /// SNORD31 / Fold change (Aza/veh), C12orf56 (ProbeSet 11735607_a_at) / Fold change (ACY-1035/veh), C12orf56 (ProbeSet 11735607_a_at) / Fold change (Aza/veh), FGFR1OP (ProbeSet 11751329_s_at) / Fold change (ACY-1035/veh), FGFR1OP (ProbeSet 11751329_s_at) / Fold change (Aza/veh), VPS36 (ProbeSet 11739960_a_at) / Fold change (ACY-1035/veh), VPS36 (ProbeSet 11739960_a_at) / RFU SYPL1 (11715823_x_at) / Fold change /veh SYPL1 (11715823_x_at) / RFU IGFBP7 (11715501_s_at) / Fold change /veh IGFBP7 (11715501_s_at) / RFU REEP3 (11722064_at) / Fold change /veh REEP3 (11722064_at) / RFU IGLL1 (11728026_x_at) / Fold change /veh IGLL1 (11728026_x_at): dose or concentration left out as unconfirmed
Settings: ProbeSet 11726703_a_at; LIST B

## Nc1ncn([C@@H]2O[C@H](CO)[C@@H](O)[C@H]2O)c(=O)n1 [azacitidine]
  Fold change vs veh, BCL10: 0.88
